Reference: ChEMBL document CHEMBL1201862, “PubChem BioAssay data set” (2004)
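In this assay, cells in 96-well plates receive the compound at five concentrations for 48 hours. Endpoints are linearly interpolated between the surrounding concentrations. GI50 = concentration required for 50% inhibition of growth.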 Activity calls are given as the source filed them. Cut-off read from the data, not from the text of the source: active = GI50 up to about 1.1 µM and inactive = higher.

Experiments:
Assay in all cases: DTP human tumour cell line panel, 48 h
SK-OV-3 = system: SK-OV-3
OVCAR-3 = system: OVCAR-3
RPMI-8226 = system: RPMI-8226
OVCAR-5 = system: OVCAR-5
HT-29 = system: HT-29
SR = system: SR
M14 = system: M14
NCI/ADR-RES = system: NCI/ADR-RES
SK-MEL-28 = system: SK-MEL-28
HCT-15 = system: HCT-15
A549 = system: A549
A498 = system: A498
OVCAR-4 = system: OVCAR-4
SF-268 = system: SF-268
Malme-3M = system: Malme-3M
OVCAR-8 = system: OVCAR-8
CAKI-1 = system: CAKI-1
K562 = system: K562
ACHN = system: ACHN
HL-60 = system: HL-60

Compound: COc1cc2c(cc1O)NC(=O)[C@@H]1C[C@@H](O)CN1C2=O
- GI50 (SK-OV-3): > 100 µM (inactive)
- GI50 (OVCAR-3): 29.2 µM (inactive)
- GI50 (RPMI-8226): 45.6 µM (inactive)
- GI50 (OVCAR-5): > 100 µM (inactive)
- GI50 (HT-29): 72.6 µM (inactive)
- GI50 (SR): 39.9 µM (inactive)
- GI50 (M14): 72.1 µM (inactive)
- GI50 (NCI/ADR-RES): 11.4 µM (inactive)
- GI50 (SK-MEL-28): > 100 µM (inactive)
- GI50 (HCT-15): 50.7 µM
- GI50 (A549): > 100 µM (inactive)
- GI50 (A498): > 100 µM (inactive)
- GI50 (OVCAR-4): > 100 µM (inactive)
- GI50 (SF-268): 88.1 µM (inactive)
- GI50 (Malme-3M): > 100 µM (inactive)
- GI50 (OVCAR-8): 98.2 µM (inactive)
- GI50 (CAKI-1): 78 µM (inactive)
- GI50 (K562): 57.7 µM (inactive)
- GI50 (ACHN): 74.6 µM (inactive)

Compound: Cc1cc(C)nc(NS(=O)(=O)c2ccc(NNc3c4ccccc4nc4c(C(=O)Nc5ccc(S(N)(=O)=O)cc5)cccc34)cc2)n1
- GI50 (SK-OV-3): 47.1 µM (inactive)
- GI50 (OVCAR-3): 25.9 µM (inactive)
- GI50 (RPMI-8226): 23.3 µM (inactive)
- GI50 (OVCAR-5): 31.1 µM (inactive)
- GI50 (HT-29): 39.7 µM (inactive)
- GI50 (HL-60): 34.9 µM (inactive)
- GI50 (SR): 12.8 µM (inactive)
- GI50 (M14): > 100 µM (inactive)
- GI50 (NCI/ADR-RES): > 100 µM (inactive)
- GI50 (SK-MEL-28): 25.1 µM (inactive)
- GI50 (HCT-15): > 100 µM
- GI50 (A549): > 100 µM (inactive)
- GI50 (OVCAR-4): 49.5 µM (inactive)
- GI50 (SF-268): 29.9 µM (inactive)
- GI50 (Malme-3M): 43.3 µM (inactive)
- GI50 (OVCAR-8): 34.4 µM (inactive)
- GI50 (CAKI-1): 50.1 µM (inactive)
- GI50 (K562): 27.9 µM (inactive)
- GI50 (ACHN): 28.1 µM (inactive)

Compound: CN(C)C(=O)/N=C1\SC(=N\c2ccccc2)/C(=N/c2ccccc2)N1c1ccc([N+](=O)[O-])cc1
- GI50 (SK-OV-3): > 100 µM (inactive)
- GI50 (OVCAR-3): 71 µM (inactive)
- GI50 (RPMI-8226): > 100 µM (inactive)
- GI50 (OVCAR-5): > 100 µM (inactive)
- GI50 (HT-29): 52.4 µM (inactive)
- GI50 (HL-60): > 100 µM (inactive)
- GI50 (SR): > 100 µM (inactive)
- GI50 (M14): > 100 µM (inactive)
- GI50 (NCI/ADR-RES): > 100 µM (inactive)
- GI50 (SK-MEL-28): > 100 µM (inactive)
- GI50 (HCT-15): > 100 µM
- GI50 (A498): > 100 µM (inactive)
- GI50 (Malme-3M): > 100 µM (inactive)
- GI50 (OVCAR-8): > 100 µM (inactive)
- GI50 (CAKI-1): > 100 µM (inactive)
- GI50 (K562): > 100 µM (inactive)

Compound: Cc1ccc(C=C(C(=O)O)C(=O)O)o1
- GI50 (SK-OV-3): > 100 µM (inactive)
- GI50 (OVCAR-3): > 100 µM (inactive)
- GI50 (RPMI-8226): > 100 µM (inactive)
- GI50 (OVCAR-5): > 100 µM (inactive)
- GI50 (HT-29): > 100 µM (inactive)
- GI50 (HL-60): > 100 µM (inactive)
- GI50 (SR): > 100 µM (inactive)
- GI50 (M14): > 100 µM (inactive)
- GI50 (NCI/ADR-RES): > 100 µM (inactive)
- GI50 (SK-MEL-28): > 100 µM (inactive)
- GI50 (HCT-15): > 100 µM
- GI50 (A549): > 100 µM (inactive)
- GI50 (A498): > 100 µM (inactive)
- GI50 (SF-268): > 100 µM (inactive)
- GI50 (Malme-3M): > 100 µM (inactive)
- GI50 (OVCAR-8): > 100 µM (inactive)
- GI50 (CAKI-1): > 100 µM (inactive)
- GI50 (K562): > 100 µM (inactive)
- GI50 (ACHN): > 100 µM (inactive)

Compound: COc1ccc2c(c1)c1c(n2CCN2CCCCC2)-c2cccc(OC)c2CC1
- GI50 (SK-OV-3): 33.4 µM (inactive)
- GI50 (OVCAR-3): 17.2 µM (inactive)
- GI50 (RPMI-8226): 11.5 µM (inactive)
- GI50 (OVCAR-5): 16.1 µM (inactive)
- GI50 (HT-29): 4.58 µM (inactive)
- GI50 (SR): 4.9 µM (inactive)
- GI50 (M14): 12 µM (inactive)
- GI50 (NCI/ADR-RES): 18.7 µM (inactive)
- GI50 (SK-MEL-28): 15.4 µM (inactive)
- GI50 (HCT-15): 8.99 µM
- GI50 (A549): 27.9 µM (inactive)
- GI50 (A498): 20.1 µM (inactive)
- GI50 (OVCAR-4): 29.2 µM (inactive)
- GI50 (SF-268): 19.7 µM (inactive)
- GI50 (OVCAR-8): 16.9 µM (inactive)
- GI50 (CAKI-1): 16.4 µM (inactive)
- GI50 (K562): 9.04 µM (inactive)
- GI50 (ACHN): 17.5 µM (inactive)

Compound: CN(C)CCOC1(Cc2ccc(Cl)cc2Cl)CCC(C(C)(C)C)CC1 (centres undefined)
- GI50 (SK-OV-3): 10.5 µM (inactive)
- GI50 (OVCAR-3): 2.42 µM (inactive)
- GI50 (RPMI-8226): 1.6 µM (inactive)
- GI50 (OVCAR-5): 1.86 µM (inactive)
- GI50 (HT-29): 1.43 µM (inactive)
- GI50 (SR): 0.0266 µM (active)
- GI50 (M14): 1.54 µM (inactive)
- GI50 (NCI/ADR-RES): 1.47 µM (inactive)
- GI50 (SK-MEL-28): 1.47 µM (inactive)
- GI50 (A549): 2.23 µM (inactive)
- GI50 (A498): 1.83 µM (inactive)
- GI50 (OVCAR-4): 2.42 µM (inactive)
- GI50 (SF-268): 3.01 µM (inactive)
- GI50 (Malme-3M): 1.73 µM (inactive)
- GI50 (OVCAR-8): 1.63 µM (inactive)
- GI50 (CAKI-1): 15.9 µM (inactive)
- GI50 (K562): 1.69 µM (inactive)
- GI50 (ACHN): 2.27 µM (inactive)
